Data on five compounds can be found in patent publication EP0108854A1, “Drug for stimulating hepatic cell homeostasis and for restoring the functional capacity of the hepatocytes” (ARCONTHORN LIMITED, priority 1982, dated 1984).

In data set [1] the test system is liver damage in rats induced by allyl alcohol. The experiment in a line: Activity against liver damage in rats induced by allyl alcohol. The data set is classed as in vivo. As for the experimental part: Experiments were carried out on the activity of the drug of this invention on liver damage in rats induced by allyl alcohol. This damage was evaluated by means of the weight of the liver, the quantity of lipids in the tissue itself and tHe excretion of BSP in the bile, as well as the changes in the GOT, GPT and the alkaline phosphatase levels in the blood.
The respective administrations to the rats were carried out intraperitoneally for 4 days. From the data in Table III it is seen that the weight of the rats'livers increased from […] in rats poisoned with allyl alcohol while the increase was only up to 5.30 mg in rats fed intraperitoneally with allyl alcohol and aminoethanethiosulphonic acid (drug of the invention). When allyl alcohol and the drug known by the name Thiola (100mg/^kg/day) was administered to the rats the liver weight increased to about 5.85 mg.

Data set [2] concerns rats fed with Nath diet. The experiment in a line: Antidyslipaemic effect in rats fed with Nath diet for 45 days (evaluations on 28th and 45th day). The class given is in vivo, female Wistar rats. The conditions noted are these: for blood triglyceride level: 28th day of treatment, aminoethanethiosulphonic acid dose printed as 10 mg/kg/day, tiadenol 100 mg/kg/day (Group C); for increase in pyruvic transaminase (GPT) level compared with the controls: Nath diet alone 60%; for increase in glutamic oxaloacetic transaminase (GOT) level compared with the controls: Nath diet alone 109%. As for the experimental part: The aminoethanethiosulphonic acid, which constitutes the drug of this invention was tested experimentally on female Wistar rats to establish its antidyslipaemic effect in comparison with drugs already in use therapeutically. For this experiment, the rats were divided into five groups of five rats which were fed in accordance with the following scheme: • GROUP "A": rats fed with a normal diet of nutritive pellets having the following composition: Composition of the nutritive pellets: [formula] with the addition of vitamins (A-D3-E-C), NaCl, CaCO3 and spring water at will. • GROUP "B": rats fed with Nath diet (Nath et al. 1959 - Journal of Nutrition, 67-289). • GROUP "C": rats fed with a Nath diet incorporating the drug tiadenol (1.25 q/kg)such that the rats could take up the drug in quantities of 100 mg/kg/day. • GROUP D: rats fed with a Nath diet incorporating the drug of the invention (1.25 g/kg of aminoethanethiosulphonic acid) such that the rats could take up the drug in quantities of 100 mg/kg/day. • GROUP"E":rats fed with a Nath diet incorporating the drug of the invention (aminoethanethiosulphonic acid) in quantities of 2.5 g/kg, so that the rats could take up the drug in quantities of 200 mg/kg/day.
The experiments were carried out over a period of 45 days. On the 28th day of treatment, the cholesteraemia and the blood triglyceride level of the rats were measured.
On the 45th day from the start of the treatment, however a whole series of systematic weight and hematochemical evaluations was carried out in accordance with the following scheme: • - liver weight/body weight percentage ratio • - ratio of the weight of the liver when removed/dry weight of the liver • - cholesteraemia according to the Watson method (1) • - blood triglyceride level according to the Bermryer method (2) • - blood alkaline phosphatase level (3,4) • - glutamic oxaloacetic transaminase level according to the Karmen method (5,6) • - glutamic pyruvic transaminase level according to the Wroblewski and La-Due method (7) • - total lipid content of the liver by extraction with ether, separation by decantation, evaporation of the ether part in an oven and weighing of the residue. • 1. - WATSON D. (1960) Clin. Chim. Acta, 5 : 637 • 2. - BERGMRYER H.U. (1975) Z. Klin. Chem. and Klin. Biochem.13 : 507 • 3; - Anon. (1970) Z.Klin. Chem. and Klin.Biochem 13 : 507. • 4. - Anon.(1972) Z.Klin. Chem. and Klin. Biochem 13 : 507. • 5. - KARMEN A. and coll. (1955) J. Clin. Invest. 34 : 126. • 6. - KARMEN A. (1955) J. Clin Invest. 34 : 131 • 7. - WROBLEWSKI F. and coll. (1956) Proc. Soc. exp. Biol. Med. 91 : 569.
Macroscopic and microscopic, anatomical-pathological examinations of the liver and of the thoracic aorta were carried out on all the animals, the microscopic examinations being carried out by means of preservation in formalin,enclosure and colouration with hematoxylin- eosin and selective dyes for the lipids according to the current methods.

Data set [3] concerns rats fed with Nath diet. The data set is described as above. The data set is classed as in vivo, female Wistar rats. The conditions noted are these: 28th day of treatment, tiadenol 100 mg/kg/day (Group C).
The test system of data set [4] is rats fed with Nath diet. The experiment in a line: Nath diet experiments in the same manner, comparison with other drugs at present in use (25th, 35th, 45th day). The conditions noted are these: for increase in cholesteraemia: aminoethanethiosulphonic acid 100 mg/kg, phosphorylcholine dose not stated; for increase in triglyceridemia: Nath diet alone 100%. The class given is in vivo. As for the experimental part:
Experiments were carried out in the same manner as explained above with other drugs at present in use and, more particularly, phosphorylcholine (2 doses/25 and 50 mg/kg), sillimarine (Legalon, 70 mg/kg), S-adenosyl-1-methionine (Samyr) 25 mg/kg.
In rats fed solely with the Nath diet, the increase is, however, 100%. Among the control drugs, only phosphorylcholine (50 mg/kg) achieves a slight reduction (-20%) relative to the increase observed at the end of the period with the atherogenic diet. • - as regards the cholesteraemia the protective action shown by the drug of the invention was significant. Indeed, in rats fed with the drug phosphorylcholine,a 300% increase was found after 25 days and 320% and 410% increases respectively were found on the 35th and 45th days of feeding while in rats fed with aminoethanethiosulphonic acid (100mg/kq) the increase in cholesteraemia was only 35% on the 25th and on the 35th days. On the 45th day the increase was 50%.

For data set [5], the system named is WISTAR RATS KEPT ON A MORRIS DIET. The experiment in a line: Protection in Wistar rats kept on a Morris diet for 45 days. The class given is in vivo. The conditions noted are these: Morris diet 45 days; (XX) 100 mg/kg, phosphorylcholine 50 mg/kg. The method, then: (§1) Table IV below gives data relative to the protection offered by the administration of aminoethanethiosulphonic acid (100 mg/kg/day) and a control drug (phosphoryl- , choline, 50 mg/kg/day) to groups of Wistar rats subjected to two different atherogenic diets, specifically the Morris diet and the Handler diet, for 45 days. The data, in general, substantially repeated those observed in experiments carried out on aminals subjected to the Nath diet.

Data set [6] has as its system WISTAR RATS ON A HANDLER DIET. The experiment in a line: Protection in Wistar rats on a Handler diet for 45 days. The data set is classed as in vivo. The note with it: Handler diet 45 days; (XX) 100 mg/kg, phosphorylcholine 50 mg/kg. The method, then: as §1
The nature of data set [7]: Toxicology, administration kept up for 180 days. The data set is classed as in vivo. The note with it: daily dose of 200 mg/kg of body weight.
Data set [8] can be described thus: Solubility in water. The class given is physicochemical.
Data set [9] in a line: Stability in the solid state. The note with it: even at 50°C for very long periods of time. The data set is classed as physicochemical.
Setting [10] is: 100 mg/kg/day i.p. for 4 days, allyl alcohol 2 ml/kg p.o. 30 minutes after last administration.
[11] abbreviates: 100 mg/kg/day i.p. for 4 days, allyl alcohol 2 ml/kg p.o. 30 minutes after last administration, listed as (XX).

In the case of `CC(S)C(=O)NCC(=O)O` (centres unmarked) [Thiola], in data set [1] (setting [10]), the “LIVER Lipids Tot.” value stood at 5.23 ± 0.30 mg%, the “LIVER Weight” value is given as “about 5.85 mg”, the “SERUM ALKALINE PHOSPHATASE” value came to 3.13 ± 0.23 U/ml and the “SERUM BSP” value is 21.78 ± 2.99 µg/mL. In addition, in data set [1] (setting [10]), the “SERUM GOT” value is 388.0 ± 25.8 mU/ml and the “SERUM GPT” value amounted to 99.4 ± 12.2 mU/ml. In [1] (after allyl alcohol, 100 mg/kg/day i.p.), the “protection against the increase in the total lipid content of the liver” value was “did not give any protection”.

The compound `OCCSCCCCCCCCCCSCCO` [tiadenol, reference compound] came in with a blood triglyceride level in data set [2] of 44 mg%. Moreover, in [2] (45th day, 100 mg/kg/day), the “increase in pyruvic transaminase (GPT) level compared with the controls” value stood at 100% and the “increase in glutamic oxaloacetic transaminase (GOT) level compared with the controls” value turned out to be 32%. This compound also gave a blood cholesterol level in data set [3] of 155 mg%.

With `C[S+](CC[C@H](N)C(=O)O)C[C@H]1O[C@@H](n2cnc3c(N)ncnc32)[C@H](O)[C@@H]1O` (some centres unmarked) [Samyr, S-adenosyl-1-methionine, reference compound], the “changes in the transaminase levels (GOT and GPT)” value in data set [4] (35th day of administration) is on record as “a certain favourable action”. In addition, the “protective action as regards the cholesteraemia” value in [4] (Legalon 70 mg/kg, Samyr 25 mg/kg, noticeably less than aminoethanethiosulphonic acid) is “a certain protective action”. The “protection from the point of view of lipid infiltration” value in data set [4] (control drugs compared with aminoethanethiosulphonic acid) was “protection was found but was only half that given by the aminoethanethiosulphonic acid”.

Regarding `C[N+](C)(C)CCOP(=O)(O)O` [phosphorylcholine, reference compound], the “reduction in triglyceridemia relative to the increase observed at the end of the period with the atherogenic diet” value in data set [4] (50 mg/kg) is -20%. Besides, the increase in cholesteraemia in [4] (25th day) was determined as 300%. Besides, the increase in cholesteraemia in [4] (35th day) is 320%. Also, in [4] (45th day), the increase in cholesteraemia stood at 410%. Besides, in [5], the “BETALIPOPROTEINS, protection” value stood at 8%; the “CHOLESTERAEMIA, protection” value was determined as 12%; the “HEPATIC LIPIDS, protection” value was determined as 12%; the “TOTAL BLOOD LIPIDS, protection” value was determined as 5%. In [6], the “CHOLESTERAEMIA, protection” value is 15%; the “HEPATIC LIPIDS, protection” value is given as 23%; the “TOTAL BLOOD LIPIDS, protection” value is 10%; the “TRIGLYCERIDEMIA, protection” value was found to be 7%.

Take `NCCS(=O)(O)=S` [aminoethanethiosulphonic acid]: in data set [2], the blood triglyceride level stood at 31 mg%. Moreover, in data set [2] (45th day, 100 mg/kg/day), the “increase in pyruvic transaminase (GPT) level compared with the controls” value is reported as 90% and the “increase in glutamic oxaloacetic transaminase (GOT) level compared with the controls” value amounted to 23%. The “increase in the hepatic lipid infiltration compared with the control animals” value in data set [2] (45th day, 100 mg/kg/day, Nath diet alone 235%) is 117%. Also, the “increase in the quantity of lipids in the tissue (hepatic parenchyma)” value (shortened to “increase in the quantity of lipids”) in data set [4] (25th day, 100 mg/kg, Nath diet alone + 155) is 50%. The “increase in the quantity of lipids” value in data set [4] (25th day, 200 mg/kg, Nath diet alone + 155) was 95%. Moreover, the increase in cholesteraemia in data set [4] (25th day) was found to be 35%. For the same compound, the increase in triglyceridemia in data set [4] (35th day, 100 mg/kg/day) was determined as 15%. Also, the increase in triglyceridemia in data set [4] (35th day, 200 mg/kg/day) turned out to be 40%. Besides, the increase in cholesteraemia in data set [4] (35th day) came out at 35%. Besides, the “increase in the quantity of lipids” value in data set [4] (45th day, 100 mg/kg, Nath diet alone + 225) turned out to be 98%. Besides, in data set [4] (45th day, 200 mg/kg, Nath diet alone + 225), the “increase in the quantity of lipids” value is 110%. Further, in [4] (45th day), the increase in cholesteraemia came out at 50%. Besides, in data set [1] (setting [10]), the “LIVER Weight” value is 5.30, the “SERUM BSP” value came out at 12.31 ± 0.91 µg/mL, the “SERUM GOT” value amounted to 172.0 ± 10.2 mU/ml and the “SERUM GPT” value is listed as 25.9 ± 2.5 mU/ml. In data set [1] (setting [11]), the “LIVER Lipids Tot.” value was 5.08 ± 0.39 mg% and the “LIVER Weight” value is reported as 5.30 ± 0.05. Also, the “LIVER Lipids Tot.” value in data set [1] (100 mg/kg/day i.p. for 4 days, allyl alcohol 2 ml/kg p.o. 30 minutes after last administration, listed as drug of the invention) is 5.08 mg%. Besides, in data set [5], the “BETALIPOPROTEINS, protection” value turned out to be 45%; the “CHOLESTERAEMIA, protection” value is 60%; the “HEPATIC LIPIDS, protection” value stood at 50%; the “TOTAL BLOOD LIPIDS, protection” value is 40%. Further, in data set [6], the “CHOLESTERAEMIA, protection” value came out at 35%; the “HEPATIC LIPIDS, protection” value is reported as 50%; the “TOTAL BLOOD LIPIDS, protection” value is reported as 33%; the “TRIGLYCERIDEMIA, protection” value turned out to be 30%. For the same compound, in [7], the mortality result is reported as “did not result in any increase in mortality” and the weight curve result is listed as “nor any variation in the weight curve”. Moreover, in [8], the solubility in water entry is on record as “soluble in water”. In addition, the “stability in the solid state” value in data set [9] is listed as “considerable stability in the solid state”. In addition, the blood cholesterol level in data set [3] stood at 129 mg%.
